By IC50 is commonly meant the midpoint of a concentration-inhibition curve. Lower therefore signals greater potency in that assay.

For this experiment, the target named is T1, CD73 (Homo sapiens, UniProt P21589).
T1 sequence (P21589 27-549): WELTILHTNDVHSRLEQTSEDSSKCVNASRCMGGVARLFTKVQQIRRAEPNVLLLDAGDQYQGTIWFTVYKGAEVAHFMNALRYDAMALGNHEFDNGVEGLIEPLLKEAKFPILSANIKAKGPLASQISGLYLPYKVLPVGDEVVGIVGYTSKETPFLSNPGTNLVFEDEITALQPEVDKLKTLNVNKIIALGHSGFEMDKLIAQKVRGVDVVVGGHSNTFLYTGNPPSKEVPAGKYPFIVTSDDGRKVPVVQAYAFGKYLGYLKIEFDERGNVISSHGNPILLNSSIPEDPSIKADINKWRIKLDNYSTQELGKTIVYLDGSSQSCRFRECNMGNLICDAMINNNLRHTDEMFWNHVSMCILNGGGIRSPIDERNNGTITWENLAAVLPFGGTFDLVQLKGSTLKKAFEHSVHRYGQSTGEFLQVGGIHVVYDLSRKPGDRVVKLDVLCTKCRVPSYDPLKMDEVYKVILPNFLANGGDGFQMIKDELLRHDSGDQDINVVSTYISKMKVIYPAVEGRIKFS
In words: CD73 biochemical assay, Malachite Green detection of AMP hydrolysis. As to conditions: CD73 320 pM, AMP 15 μM, Malachite Green readout. The protocol: Assay Reaction Conditions
• Assay Volume: 70 μl • Reaction Volume: 50 μl • CD73: 0.3208 nM • AMP: 15 μM • Assay Buffer: 2 5 mM Tris-HCL, pH 7.4, 0.01% Brij-35, 0.01% BSA, 5 mM MgCl2 Assay Procedure:
A clear 384 well plate was used in this assay.
Made dose titration of testing compounds in assay buffer, 10 points ½ log titrations in duplicates starting at 100 μM. Total volume for each well was 25 μl, with CD73 then added to each well for a final concentration of 320 pM. The solution was then incubated at RT for 15 min. 25 μl of AMP was added to each well for a final concentration of 15 μM, and then incubated at rt for 10 min. 10 μl of Malachite Green Reagent A was then added and allowed to incubate at rt for 10 min. 10 μl of Malachite Green Reagent B was then added and allowed to incubate at rt for 45 min. The absorbance for each sample was read on an Envision plate reader using excitation filter: Cy5 […].
The ability of the compounds disclosed herein to inhibit CD73 activity was quantified and the respective IC50 values were determined. Table 2 provides the biochemical IC50 values of compounds disclosed herein.
Turning to `O=P(O)(O)C(CO)OC[C@H]1O[C@@H](c2ccc3c(NC4CCCC4)nc(Cl)nn23)[C@H](O)[C@@H]1O` (stereo partly drawn) [Example 13, (1-(((2R,3S,4R,5S)-5-(2-chloro-4-(cyclopentylamino)pyrrolo[2,1-f][1,2,4]triazin-7-yl)-3,4-dihydroxytetrahydrofuran-2-yl)methoxy)-2-hydroxyethyl)phosphonic acid], the IC50 was in the range of 1 to 100 nM.
Then `COCC(OC[C@H]1O[C@@H](c2ccc3c(NC4CCCC4)nc(Cl)nn23)[C@H](O)[C@@H]1O)P(=O)(O)O` (stereo partly drawn) [Example 14, (1-(((2R,3S,4R,5S)-5-(2-chloro-4-(cyclopentylamino)pyrrolo[2,1-f][1,2,4]triazin-7-yl)-3,4-dihydroxytetrahydrofuran-2-yl)methoxy)-2-methoxyethyl)phosphonic acid], with 0.5 to 1 nM; and `O=P(O)(O)[C@](CO)(COCc1nn[nH]n1)OC[C@H]1O[C@@H](c2ccc3c(NC4CCCC4)nc(Cl)nn23)[C@H](O)[C@@H]1O` [Example 16, ((R)-1-((2H-tetrazol-5-yl)methoxy)-2-(((2R,3S,4R,5S)-5-(2-chloro-4-(cyclopentylamino)pyrrolo[2,1-f][1,2,4]triazin-7-yl)-3,4-dihydroxytetrahydrofuran-2-yl)methoxy)-3-hydroxypropan-2-yl)phosphonic acid], with 0.5 to 1 nM.
Then `O=P(O)(O)C(CO)(CO)OC[C@H]1O[C@@H](c2cnn3c(NC4CCCC4)cc(Cl)nc23)[C@H](O)[C@@H]1O` [Example 17, (2-(((2R,3S,4R,5S)-5-(5-Chloro-7-(cyclopentylamino)pyrazolo[1,5-a]pyrimidin-3-yl)-3,4-dihydroxytetrahydrofuran-2-yl)methoxy)-1,3-dihydroxypropan-2-yl)phosphonic acid], with 0.5 to 1 nM; and `O=P(O)(O)C(CO)(CO)OC[C@H]1O[C@H](c2cnn3c(NC4CCCC4)cc(Cl)nc23)[C@H](O)[C@@H]1O` [Example 18, (2-(((2R,3S,4R,5R)-5-(5-Chloro-7-(cyclopentylamino)pyrazolo[1,5-a]pyrimidin-3-yl)-3,4-dihydroxytetrahydrofuran-2-yl)methoxy)-1,3-dihydroxypropan-2-yl)phosphonic acid], with 1 to 100 nM; and `CC(CO)(OC[C@H]1O[C@@H](c2ccc3c(NC4CCCC4)nc(Cl)nn23)[C@H](O)[C@@H]1O)P(=O)(O)O` (stereo partly drawn) [Example 19, (2-(((2R,3S,4R,5S)-5-(2-chloro-4-(cyclopentylamino)pyrrolo[2,1-f][1,2,4]triazin-7-yl)-3,4-dihydroxytetrahydrofuran-2-yl)methoxy)-1-hydroxypropan-2-yl)phosphonic acid], with 1 to 100 nM.
With `O=P(O)(O)C(CO)(COCc1nn[nH]n1)OC[C@H]1O[C@@H](c2ccc3c(NC4CCCC4)nc(Cl)nn23)[C@H](O)[C@@H]1O` (stereo partly drawn) [Example 20, (1-((2H-tetrazol-5-yl)methoxy)-2-(((2R,3S,4R,5S)-5-(2-chloro-4-(cyclopentylamino)pyrrolo[2,1-f][1,2,4]triazin-7-yl)-3,4-dihydroxytetrahydrofuran-2-yl)methoxy)-3-hydroxypropan-2-yl)phosphonic acid], the half-inhibitory concentration (IC50) is at most 0.5 nM.
Under `O=P(O)(O)C(CO)(Cc1nn[nH]n1)OC[C@H]1O[C@@H](c2ccc3c(NC4CCCC4)nc(CO)nn23)[C@H](O)[C@@H]1O` (stereo partly shown) [Example 21] stands 0.5 to 1 nM; under `COCC(C)(OC[C@H]1O[C@@H](c2ccc3c(NC4CCCC4)nc(Cl)nn23)[C@H](O)[C@@H]1O)P(=O)(O)O` (stereo partly drawn) [Example 22, (2-(((2R,3S,4R,5S)-5-(2-chloro-4-(cyclopentylamino)pyrrolo[2,1-f][1,2,4]triazin-7-yl)-3,4-dihydroxytetrahydrofuran-2-yl)methoxy)-1-methoxypropan-2-yl)phosphonic acid], at most 0.5 nM; under `O=C(O)COCC(CO)(OC[C@H]1O[C@@H](c2ccc3c(NC4CCCC4)nc(Cl)nn23)[C@H](O)[C@@H]1O)P(=O)(O)O` (stereo partly drawn) [Example 23, 2-(2-(((2R,3S,4R,5S)-5-(2-chloro-4-(cyclopentylamino)pyrrolo[2,1-f][1,2,4]triazin-7-yl)-3,4-dihydroxytetrahydrofuran-2-yl)methoxy)-3-hydroxy-2-phosphonopropoxy)acetic acid], 0.5 to 1 nM.
Then `CCOC(=O)COCC(CO)(OC[C@H]1O[C@@H](c2ccc3c(NC4CCCC4)nc(Cl)nn23)[C@H](O)[C@@H]1O)P(=O)(O)O` (stereo partly drawn) [Example 24, (2-(((2R,3S,4R,5S)-5-(2-chloro-4-(cyclopentylamino)pyrrolo[2,1-f][1,2,4]triazin-7-yl)-3,4-dihydroxytetrahydrofuran-2-yl)methoxy)-1-(2-ethoxy-2-oxoethoxy)-3-hydroxypropan-2-yl)phosphonic acid], with 1 to 100 nM; and `COC[C@](COCC(=O)O)(OC[C@H]1O[C@@H](c2ccc3c(NC4CCCC4)nc(Cl)nn23)[C@H](O)[C@@H]1O)P(=O)(O)O` [Example 25, 2-((S)-2-(((2R,3S,4R,5S)-5-(2-chloro-4-(cyclopentylamino)pyrrolo[2,1-f][1,2,4]triazin-7-yl)-3,4-dihydroxytetrahydrofuran-2-yl)methoxy)-3-methoxy-2-phosphonopropoxy)acetic acid], with at most 0.5 nM.
The compound `CCOC(=O)COC[C@@](COC)(OC[C@H]1O[C@@H](c2ccc3c(NC4CCCC4)nc(Cl)nn23)[C@H](O)[C@@H]1O)P(=O)(O)O` [Example 26, ((S)-2-(((2R,3S,4R,5S)-5-(2-chloro-4-(cyclopentylamino)pyrrolo[2,1-f][1,2,4]triazin-7-yl)-3,4-dihydroxytetrahydrofuran-2-yl)methoxy)-1-(2-ethoxy-2-oxoethoxy)-3-methoxypropan-2-yl)phosphonic acid] came in with an IC50 of at most 0.5 nM.
Then `O=P(O)(O)C(CO)(CO)OC[C@H]1O[C@@H](c2ccc3c(NCc4ccccc4Cl)nc(Cl)nn23)[C@H](O)[C@@H]1O` [Example 27, (2-(((2R,3S,4R,5S)-5-(2-chloro-4-((2-chlorobenzyl)amino)pyrrolo[2,1-f][1,2,4]triazin-7-yl)-3,4-dihydroxytetrahydrofuran-2-yl)methoxy)-1,3-dihydroxypropan-2-yl)phosphonic acid], with 1 to 100 nM; and `O=P(O)(O)C(COCc1nnn[nH]1)(COCc1nnn[nH]1)OC[C@H]1O[C@@H](c2ccc3c(NC4CCCC4)nc(Cl)nn23)[C@H](O)[C@@H]1O` [Example 28, (1,3-bis((1H-tetrazol-5-yl)methoxy)-2-(((2R,3S,4R,5S)-5-(2-chloro-4-(cyclopentylamino)pyrrolo[2,1-f][1,2,4]triazin-7-yl)-3,4-dihydroxytetrahydrofuran-2-yl)methoxy)propan-2-yl)phosphonic acid], with at most 0.5 nM.
In turn, `C[C@@]1(c2ccc3c(NC4CCCC4)nc(Cl)nn23)O[C@H](COC(CO)(COCc2nnn[nH]2)P(=O)(O)O)[C@@H](O)[C@H]1O` (stereo partly drawn) [Example 29, (1-((1H-tetrazol-5-yl)methoxy)-2-(((2R,3S,4R,5S)-5-(2-chloro-4-(cyclopentylamino)pyrrolo[2,1-f][1,2,4]triazin-7-yl)-3,4-dihydroxy-5-methyltetrahydrofuran-2-yl)methoxy)-3-hydroxypropan-2-yl)phosphonic acid] showed an IC50 of 100 to 1000 nM.

The record behind these values is US12544391B2, “CD73 inhibitors” (ORIC Pharmaceuticals, Inc., priority 2019, dated 2026).
